Data on three molecules can be found in patent US6413521B1, “Helminth parasite antigen with aminopeptidase-like activity” (The Barbraham Institute, priority 1993, dated 2002).

One data set has as its system Con A Oo12 ApA activity. As to the kind of experiment: Con A O12 aminopeptidase inhibition assay, ApA (α-glutamic p-nitroanilide). The class given is biochemical, Ostertagia ostertagi. How it is done:
(§1) The effect of various protease inhibitors on Oo12 activity was assayed and included amastatin (aminopeptidase inhibitor), actinonin (aminopeptidase inhibitor), bestatin (aminopeptidase inhibitor), EDTA (metallo-protease inhibitor), E64 (cysteine protease inhibitor), pepstatin (aspartic protease inhibitor), 1,10 phenanthroline (metallo-protease inhibitor) and 3,4-dichloroisocoumarin (DCI, serine protease inhibitor). 10 μl Con A Oo12 and 100 μl 50 mM Mops buffer, pH 7.0 was added to a microtitre plate well and 2-4 μl of enzyme inhibitor added, to give a final concentration of 0.5 mM and 1 mM actinonin, 50 μM and 100 μM bestatin, 1 mM and 15 mM EDTA, 50 μM and 100 μM E64, 10 and 50 μM pepstatin, 1 mM and 10 mM 1,10 phenanthroline, 100 μM and 500 μM DCI. The plate was preincubated at 37° C. for 20-28 minutes and then assayed for ApM and ApA activity. 100 μl 2 mM leucine p-nitroanilide (ApM) or α-glutamic p-nitroanilide (ApA)/Mops was added per well and the optical density (OD) at 405 nm read using an Elisa plate reader. The plates were incubated at 37° C. for 45-48 minutes and the final OD reading was then taken. The OD change per minute per 10 μl sample was calculated. All assays were carried out in triplicate.

The subject of the next data set is pig ApA and ApM. To be noted: Aoyagi et al., J. Antibiotics 43(2); cited from earlier work.
The subject of the next data set is Con A Oo12 ApM activity. The data set can be described thus: Con A O12 aminopeptidase inhibition assay, ApM (leucine p-nitroanilide). The class given is biochemical, Ostertagia ostertagi. As to the method: as §1
Data set [1] concerns O. ostertagi extracted residue (microsomal aminopeptidase). The data set can be described thus: Trypsin digestion of O12: aminopeptidase activity released from extracted O. ostertagi residue. Type of data set: biochemical, Ostertagia ostertagi. As to the method: The residue obtained by centrifuging an homogenate of O. ostertagi in phosphate-buffered saline containing 0.02% sodium azide (PBSa) at 26,500 g (max) for 20 minutes in a swing-out rotor was re-extracted 3 times with PBSa, once with 1% polyoxyethylenesorbitan monolaurate (Tween 20) in PBSa and once with 50 mM 3-[N-morpholino]propane-sulphonic acid (MOPS) pH 8.0. The extracted residue was resuspended in 50 mM MOPS to give the equivalent of 0.17 g worm starting material per ml. Aliquots were digested with 0.5, 5, 50 or 500 μg TPCK-trypsin (trypsin treated with L-1-tosylamide-2-phenylethylchloromethyl ketone)/ml. Digestions were stopped by the addition of 10 mM DCI (15 μl/ml). […] Release of microsomal aminopeptidase A activity was negligible from pellets digested with 0-50 μg TPCK-trypsin/ml.
In another experiment material from 5 g O. ostertagi was digested twice with 50 μg/ml TPCK-trypsin. About 33% of the original amount of ApM was released after a second digest. […] Fractions were run on SDS-PAGE on a 6-16% minigel. After Coomassie blue staining, a band located around the 116,000 region, about the size expected from tryptic digestion of O12 was located in the fractions having the microsomal aminopeptidase activity.
A further 4.3 g of O. ostertagi was digested twice with TPCK-trypsin as above. The total aminopeptidase activity solubilised equalled 455 nmoles/min (Table 6). The high speed supernatants from the first and second digests (Trypsin HS1 & HS2) were buffer exchanged with ConA buffer A and run on a ConA sepharose column. The start material applied to the column was enriched for ApM activity, having a ratio of ApM:ApA of 18:1. All the ApM activity bound to the column (there was none in the wash-through); and 67% of this was recovered by elution with 0.5M methylglucopyranoside+0.2M methylmannoside. (Thus the use of two sugars in the eluting buffer more than doubled ApM recovery from the ConA column.) Fractions containing ApM activity were pooled, concentrated and subjected to gel filtration (on an FPLC Superdex 75 HR10/30 (Pharmacia) column). […]

The subject of a further data set is Ostertagia ostertagi PHP. As to the kind of experiment: Protease digestion of Oo PhP, release of ApM activity. The class given is biochemical. As to the method:
Method: Oo PhP was resuspended in 50 mM Mops buffer, pH 7.0 to give 0.1 mg pellet/ml. 50 μl aliquots were prewarmed at 37° C. for 39 minutes. 5 μl of either α-Chymotrypsin (Sigma type VII, 50 units/mg solid), Subtilisin (Sigma type VIII, 11.6 units/mg solid), Trypsin (Sigma, TPCK-treated type XIII, 9700 units/mg solid) or Thermolysin (Sigma, 37 units/mg solid dissolved in 1 mM KCl/2 mM CaCl) was added to give final protease concentrations of 5, 50, 500, 1000 and 2000 μg/ml. Aliquots containing chymotrypsin, trypsin or subtilisin were then incubated at 37° C. for 1 hour and protease activity inhibited by the addition of 1 μl 10 mM 3,4-dichloroisocoumarin (DCI). Aliquots containing thermolysin were incubated for 2 hours at 37° C. and activity inhibited by the addition of 1 μl 0.25M EDTA. Samples were spun at high speed on the airfuge at 20 psi for 20 minutes at room temperature. 5 μl samples were assay for ApM activity, using the microtitre plate method, over 29.6 minutes with methionine-pNA as substrate.

For a further data set, the system named is Oc12. As to the kind of experiment: Blot of O. circumcincta extracts probed with biotinylated lectins. The conditions noted are these: electroblot of O.circumcincta extracts. The class given is binding, Ostertagia circumcincta. From the text: The O.circumcincta extracts were electroblotted alongside a sample of H110D and probed with several biotinylated lectins to determine which, if any, would bind to Oc12. (FIG. 8). Biotinylated Concanavalin A, Ulex europaeus, Triticum vulgaris, Dolichos biflorus and Arachis hypogea lectins were used at dilutions optimised for use with H110D. […] U.europaeus lectin bound to several low molecular weight bands and may be used as an affinity chromatography column for removing low molecular weight protein from OcThHS. The wash-through fractions from such a column were applied to a Con A affinity column and the bound proteins were eluted with a gradient of 0-100% 0.5M methylglucoside (FIG. 9). Fractions were assayed for aminopeptidase-like activity (FIG. 10). Aminopeptidase M-like activity was present in the binding fractions.

As to `CC(C)C[C@@H](N)[C@H](O)C(=O)N[C@H](C(=O)N[C@H](C(=O)N[C@@H](CC(=O)O)C(=O)O)C(C)C)C(C)C` [Amaststin, amastatin], in the data set with Con A Oo12 ApA activity (inhibitor 10 μM), the α-Glu-pNA enzyme activity is listed as 0.282 nmoles/min/10 μl ConA O12 and the α-Glu-pNA enzyme inhibition stood at 12%. Also, in the data set with Con A Oo12 ApA activity (inhibitor 50 μM), the α-Glu-pNA enzyme activity was 0.205 nmoles/min/10 μl ConA O12 and the α-Glu-pNA enzyme inhibition is on record as 36%. Besides, the “inhibition of pig ApA versus ApM” value in the data set on pig ApA and ApM is on record as “better inhibitor of pig ApA than of ApM”. In the data set on Con A Oo12 ApM activity (inhibitor 10 μM), this molecule showed a Leu-pNA enzyme activity of 0.218 nmoles/min/10 μl ConA O12 and a Leu-pNA enzyme inhibition of 86%. For the same molecule, in the data set on Con A Oo12 ApM activity (inhibitor 50 μM), the Leu-pNA enzyme activity came out at 0.074 nmoles/min/10 μl ConA O12 and the Leu-pNA enzyme inhibition is 95%.

B1: Trypsin: protease, Sigma, TPCK-treated type XIII, 9700 units/mg solid (protein, UniProt P00760 24-246, looked up)
Serine protease 1: IVGGYTCGANTVPYQVSLNSGYHFCGGSLINSQWVVSAAHCYKSGIQVRLGEDNINVVEGNEQFISASKSIVHPSYNSNTLNNDIMLIKLKSAASLNSRVASISLPTSCASAGTQCLISGWGNTKSSGTSYPDVLKCLKAPILSDSSCKSAYPGQITSNMFCAGYLEGGKDSCQGDSGGPVVCSGKLQGIVSWGSGCAQKNKPGVYTKVCNYVSWIKQTIASN
modifications: TPCK-treated
notes: protease, Sigma, TPCK-treated type XIII, 9700 units/mg solid
On to B1, for which the “release of microsomal aminopeptidase A activity” value in data set [1] (0-50 μg TPCK-trypsin/ml) is recorded as “negligible”. The “release of microsomal aminopeptidase M activity” value in data set [1] (50 μg TPCK-trypsin (485 units), of 0.5, 5, 50 or 500 μg/ml) is given as “greatest amount”. Moreover, in data set [1] (5 g O. ostertagi digested twice with 50 μg/ml), the “original amount of ApM released after a second digest” value is “About 33%”. The “Aminopeptidase M activity released by protease digestion, Met-pNA” value is 0.118 nmoles/min/5 μl high speed supernatant in the data set on Ostertagia ostertagi PHP (5 μg protease/0.1 mg PHP/ml); 0.246 nmoles/min/5 μl high speed supernatant with Ostertagia ostertagi PHP (50 μg protease/0.1 mg PHP/ml); 1.075 nmoles/min/5 μl high speed supernatant with Ostertagia ostertagi PHP (500 μg protease/0.1 mg PHP/ml); 1.273 nmoles/min/5 μl high speed supernatant with Ostertagia ostertagi PHP (1000 μg protease/0.1 mg PHP/ml); 1.068 nmoles/min/5 μl high speed supernatant in the data set on Ostertagia ostertagi PHP (2000 μg protease/0.1 mg PHP/ml).

B2: D.biflorus lectin: biotinylated Dolichos biflorus lectin (protein)
chain: ANIQSFSFKNFNSPSFILQGDATVSSGKLQLTKVKENGIPTPSSLGRAFYSSPIQIYDKSTGAVASWATSFTVKISAPSKASFADGIAFALVPVGSEPRRNGGYLGVFDSDVYNNSAQTVAVEFDTFSNSGWDPSMKHIGIDVNSIKSIATVSWDLANGENAEILITYNAATSLLVASLVHPSRRTSYILSERVDITNELPEYVSVGFSATTGLSEGYIETHDVLSWSFASKLPDDSTAEPLDLASYLVRNVL
Turning to B2, in the data set on Oc12, the “binding of biotinylated lectin to Oc12” value is “binds very weakly”.
